Results taken from publication PMC11416114 (Infection and Drug Resistance, 2024).
Several values for one entry are separate records, joined by “and”; a condition that tells them apart may be missing. Identical values can stand only once. Like-named read-outs stand apart in the source and are kept apart here.

Experiments:
[1] = clinical; settings: human, in vivo, 300 mg
[2] = limit for steady-state Cpeak; cited from earlier work
[3] = cited from earlier work
[4] = eight CRRT supported critically ill patients; cited from earlier work
[5] = cited from earlier work; remark: listed apart in the source
[6] = critically ill adult patients; for Residual variability (σ) stdev, Final Model Estimate, Mean: log-additive error
[7] = tested on: SARS-CoV-2; settings: free exposure, cited from earlier work
[8] = Chinese patients aged 60 and above; typical patient; cited from earlier work
[9] = mild to moderate hepatic impairment; cited from earlier work
[10] = cited from earlier work; remark: listed apart in the source
[11] = healthy young adults, NIR/RIT 2250mg/100mg once

SMILES: CC(C)(C)[C@H](NC(=O)C(F)(F)F)C(=O)N1C[C@H]2[C@@H]([C@H]1C(=O)N[C@H](C#N)C[C@@H]1CCNC1=O)C2(C)C [NIR, Nirmatrelvir]
- AUC [1]: 107 µg·h/mL
- human no observed adverse effect levels (NOAELs) [2]: 79,700 ng/mL
- CL/F ([3]; healthy adults aged 18–60): 8.2 L/h
- Ka ([3]; healthy adults aged 18–60): 1.11 h⁻¹
- V/F ([3]; healthy adults aged 18–60): 111 L
- AUC [3, 11]: 188.2 µg·h/mL
- CL/F [3, 11]: 3.97 L/h
- V/F [3, 11]: 40.06 L
- valley concentrations [4]: 3325.34 to 15625.46 ng/mL
- protein binding [5]: approximately 70%
- absorption rate constant (Ka), mean (SD) [6]: 0.42 (0.10) h^−1 and 0.42 h^−1
- apparent clearance (CL/F), mean (SD) [6]: 3.6 (0.26) L/h and 3.6 L/h
- Residual variability (σ) stdev, Bootstrap Estimate, Median ([6]; bootstrap): 0.26
- dCLdAUCRIT, Bootstrap Estimate, Median ([6]; bootstrap): −0.44
- dCLdCrCL, Bootstrap Estimate, Median ([6]; bootstrap): 0.58
- ω^2V (inter-individual variability), Bootstrap Estimate, Median ([6]; bootstrap): 0.60
- tvCL, Bootstrap of Final Model Estimate, Median ([6]; bootstrap 1000 samples): 3.2 L/h
- tvKa, Bootstrap of Final Model Estimate, Median ([6]; bootstrap 1000 samples): 0.61 h⁻¹
- Residual variability (σ) stdev, Final Model Estimate, Mean ([6]; final model): 0.26
- tvCL, Final Model Estimate, Mean ([6]; one-compartment final model): 3.6 L/h
- tvKa, Final Model Estimate, Mean ([6]; one-compartment final model): 0.42 h⁻¹
- in vitro EC90 (free) [7]: 0.0905 µg/mL
- EC90 ([7]; read-out: in vitro EC90 (free)): 181 nM
- CL/F [8]: 4.16 L/h
- Ka [8]: 0.776 h⁻¹
- V/F [8]: 39.1 L
- median plasma concentration and AUC in hepatic impairment [9]: comparable to those with normal hepatic function
- CL/F lower than normal renal function group ([10]; moderate renal impairment group): 47%
- CL/F lower than normal renal function group ([10]; severe renal impairment group): 80%

SMILES: CC(C)c1nc(CN(C)C(=O)N[C@H](C(=O)N[C@@H](Cc2ccccc2)C[C@H](O)[C@H](Cc2ccccc2)NC(=O)OCc2cncs2)C(C)C)cs1 [RIT, Ritonavir]
- Residual variability (σ) stdev, Bootstrap Estimate, Median ([6]; bootstrap): 0.34
- ω^2CL (inter-individual variability), Bootstrap Estimate, Median ([6]; bootstrap): 0.53
- ω^2V (inter-individual variability), Bootstrap Estimate, Median ([6]; bootstrap): 1.64
- tvCL, Bootstrap of Final Model Estimate, Median ([6]; bootstrap 1000 samples): 10.3 L/h
- tvKa, Bootstrap of Final Model Estimate, Median ([6]; bootstrap 1000 samples): 1.10 h⁻¹
- tvV, Bootstrap of Final Model Estimate, Median ([6]; bootstrap 1000 samples): 82.4 L
- ω^2CL (inter-individual variability), Final Model Estimate, Mean ([6]; final model): 0.57
- ω^2V (inter-individual variability), Final Model Estimate, Mean ([6]; final model): 1.27
- Residual variability (σ) stdev, Final Model Estimate, Mean ([6]; final model): 0.34
- tvCL, Final Model Estimate, Mean ([6]; one-compartment final model): 10.3 L/h
- tvKa, Final Model Estimate, Mean ([6]; one-compartment final model): 0.64 h⁻¹
- tvV, Final Model Estimate, Mean ([6]; one-compartment final model): 84.9 L
